Measurements reported in PubChem BioAssay AID1963862 (Molecular Pharmacology Branch, DTP, NCI, 2024).

System: KRAS patient-derived spheroids with HUVEC/MSC, viability
Assay: Anticancer human tumor 941728-121-R-J1-PDC patient-derived lung adenocarcinoma cell line growth inhibition [KRAS2]
Settings: for IC50: curve of first compound; for viability, T/C: stronger effect = lower value
Source text: Multicellular complex tumor spheroid response to RAS pathway inhibitors in combination with a targeted agents in patient-derived cell lines with oncogenic KRAS variants from multiple cancer types
A high-throughput screen of multi-cell type tumor spheroids was designed to identify active combinations of targeted small molecules and KRAS pathway inhibitors. Complex spheroids include a stromal component modeled by human endothelial cells (HUVEC) and fibroblasts modeled by human mesenchymal stem cells (MSCs). The concentration ranges selected for each drug and investigational agent were based upon clinically achievable concentrations if the clinical Cmax of the agent was known.
Compounds. The drugs and investigational agents: BI-3406 (NSC825286), BAY-293 (NSC824723), batoprotafib (TNO155; NSC825523), sotorasib (AMG 510; NSC818433), MRTX1257 (NSC819558), elimusertib (BAY 1895344; NSC800525), molibresib (GSK525762; NSC774829), temuterkib (LY3214996; NSC803410), venetoclax (NSC766270), alisertib (NSC759677), olaparib (NSC753686), talazoparib (NSC767125), erdafitinib (NSC781556), ipatasertib (NSC767898), cabozantinib (NSC761068), nintedanib (NSC756659), abemaciclib (NSC768073), docetaxel (NSC628503), trametinib (NSC758246), and sapanisertib (NSC764658) were obtained from the National Cancer Institute (NCI) Developmental Therapeutics Program Chemical Repository. The FDA-approved anticancer drug set is available from the Developmental Therapeutics Program. […] The stock solutions were prepared in dimethyl sulfoxide (DMSO, Sigma-Aldrich, St. Louis, MO, cat. D2650) at 800-fold the tested concentration and stored at -70 degrees C prior to their use. All drugs and investigational agents were tested over a range starting from a high concentration at or near the clinical Cmax and decreasing in half-log increments. If the clinical Cmax for an agent had not been determined, the highest concentration tested was 10 microM.
Cell Culture. All cells were maintained in an incubator at 37 degrees C and 5% CO2 with 95% humidity. The PDC lines were cultured according to standard operating procedures established by the NCI PDMR (https://pdmr.cancer.gov/sops/default.htm). Briefly, all PDCs were thawed and cultured in Matrigel-coated flasks prepared with a working solution of 1X Ham's F-12 nutrient mix, without supplementation (Invitrogen, Waltham, MA, cat. 11765054), 100 U/mL penicillin-streptomycin (Invitrogen, cat. 15140122), and 2.5% Matrigel (Corning Inc., Corning, NY, cat. 354248) for the first three passages. All PDCs were cultured in complete DMEM/F-12 media containing advanced DMEM/F-12 (Invitrogen, cat. 12634028), 4.9% defined fetal bovine serum, heat inactivated (HyClone Laboratories Inc., Logan, UT, cat. SH30070.03HI), 389 ng/mL hydrocortisone (Sigma-Aldrich, cat. H4001), 9.7 ng/mL human EGF recombinant protein (Invitrogen, cat. PHG0313), 23.4 microg/mL adenine (Sigma-Aldrich, cat. A2786), 97.3 U/mL penicillin-streptomycin (Invitrogen, cat. 15140122), 1.9 mM L-glutamine (Invitrogen, cat. 25030081), and 9.7 microM Y-27632 dihydrochloride (Tocris Bioscience, Bristol, United Kingdom, cat. 1254). The PDCs were cultured in complete DMEM/F12 media without 9.7 microM Y-27632 dihydrochloride for at least two passages prior to the screen. The established cell line HOP-62 was cultured in RPMI 1640 medium, HEPES (Invitrogen, cat. 22400105) with 10% defined fetal bovine serum (HyClone Laboratories Inc., cat. SH30070.03) and 2 mM L-glutamine (Invitrogen, cat. 25030081). The pooled donor HUVEC were cultured in endothelial cell growth medium 2 (PromoCell, Heidelberg, Germany, cat. C-22011) and the hMSC were cultured in mesenchymal stem cell growth medium 2 (PromoCell, cat. C-28009). For all experiments, HUVEC and hMSC were used at passages </=5, while the malignant cell lines were used at passages </=15. […]

[1] = second compound 0.1 µM, first compound 0.0316 µM
[2] = second compound 0.1 µM, first compound 0.1 µM
[3] = second compound 0.1 µM, first compound 0.316 µM
[4] = second compound 0.1 µM, first compound 1 µM
[5] = second compound 0.1 µM, first compound 3.16 µM
[6] = second compound 0.1 µM, first compound 10 µM
[7] = second compound 0.316 µM, first compound 0.0316 µM
[8] = second compound 0.316 µM, first compound 0.1 µM
[9] = second compound 0.316 µM, first compound 0.316 µM
[10] = second compound 0.316 µM, first compound 1 µM
[11] = second compound 0.316 µM, first compound 3.16 µM
[12] = second compound 0.316 µM, first compound 10 µM
[13] = second compound 1 µM, first compound 0.0316 µM
[14] = second compound 1 µM, first compound 0.1 µM
[15] = second compound 1 µM, first compound 0.316 µM
[16] = second compound 1 µM, first compound 1 µM
[17] = second compound 1 µM, first compound 3.16 µM
[18] = second compound 1 µM, first compound 10 µM
[19] = second compound 3.16 µM, first compound 0.0316 µM
[20] = second compound 3.16 µM, first compound 0.1 µM
[21] = second compound 3.16 µM, first compound 0.316 µM
[22] = second compound 3.16 µM, first compound 1 µM
[23] = second compound 3.16 µM, first compound 3.16 µM
[24] = second compound 3.16 µM, first compound 10 µM
[25] = second compound 10 µM, first compound 0.0316 µM
[26] = second compound 10 µM, first compound 0.1 µM
[27] = second compound 10 µM, first compound 0.316 µM
[28] = second compound 10 µM, first compound 1 µM
[29] = second compound 10 µM, first compound 3.16 µM
[30] = second compound 10 µM, first compound 10 µM
[31] = second compound 0.1 µM, first compound 0.00316 µM
[32] = second compound 0.1 µM, first compound 0.01 µM
[33] = second compound 0.316 µM, first compound 0.00316 µM
[34] = second compound 0.316 µM, first compound 0.01 µM
[35] = second compound 1 µM, first compound 0.00316 µM
[36] = second compound 1 µM, first compound 0.01 µM
[37] = second compound 3.16 µM, first compound 0.00316 µM
[38] = second compound 3.16 µM, first compound 0.01 µM
[39] = second compound 10 µM, first compound 0.00316 µM
[40] = second compound 10 µM, first compound 0.01 µM
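Note: spheroids exposed to agents for seven days before readout.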

SMILES | IC50 (second compound 0.1 µM) [nM] | IC50 (second compound 0.316 µM) [nM] | IC50 (second compound 1 µM) [nM] | IC50 (second compound 3.16 µM) [nM] | IC50 (second compound 10 µM) [nM] | viability, T/C [1] [%] | viability, T/C [2] [%] | viability, T/C [3] [%] | viability, T/C [4] [%] | viability, T/C [7] [%] | viability, T/C [8] [%] | viability, T/C [9] [%] | viability, T/C [10] [%] | viability, T/C [13] [%] | viability, T/C [14] [%] | viability, T/C [15] [%] | viability, T/C [19] [%] | viability, T/C [20] [%] | viability, T/C [25] [%] | viability, T/C [26] [%] | also measured
CC(C)NCC(C(=O)N1CCN(c2ncnc3c2C(C)CC3O)CC1)c1ccc(Cl)cc1 (stereo not given) + C=CC(=O)N1CCN(c2nc(=O)n(-c3c(C)ccnc3C(C)C)c3nc(-c4c(O)cccc4F)c(F)cc23)C(C)C1 | < 31.6 | < 31.6 | < 31.6 | < 31.6 | < 31.6 | 19.7 | 20.1 | 19.6 | 15.3 | 24.7 | 19.5 | 20 | 15.2 | 22.6 | 22.4 | 13.9 | 24.1 | 25.8 | 25.9 | 21.5 | viability, T/C [5]: 9.91%; viability, T/C [6]: 4.14%; viability, T/C [11]: 9.83%; viability, T/C [12]: 4.08%; viability, T/C [16]: 16%; viability, T/C [17]: 12%; viability, T/C [18]: 5.09%; viability, T/C [21]: 20.3%; viability, T/C [22]: 16%; viability, T/C [23]: 10.6%; viability, T/C [24]: 4.7%; viability, T/C [27]: 18.6%; viability, T/C [28]: 14.9%; viability, T/C [29]: 6.4%; viability, T/C [30]: 4.57%
CC1(C)CCC(CN2CCN(c3ccc(C(=O)NS(=O)(=O)c4ccc(NCC5CCOCC5)c([N+](=O)[O-])c4)c(Oc4cnc5[nH]ccc5c4)c3)CC2)=C(c2ccc(Cl)cc2)C1 + C=CC(=O)N1CCN(c2nc(=O)n(-c3c(C)ccnc3C(C)C)c3nc(-c4c(O)cccc4F)c(F)cc23)C(C)C1 | < 31.6 | < 31.6 | < 31.6 | < 31.6 | < 31.6 | 20.2 | 17.6 | 17.8 | 17.4 | 18.6 | 16.1 | 16.4 | 16.3 | 20.8 | 19.7 | 29.4 | 19.3 | 16.4 | 25.3 | 24.8 | viability, T/C [5]: 7.67%; viability, T/C [6]: 2.7%; viability, T/C [11]: 9.65%; viability, T/C [12]: 4.02%; viability, T/C [16]: 17%; viability, T/C [17]: 13.2%; viability, T/C [18]: 4.29%; viability, T/C [21]: 22.5%; viability, T/C [22]: 18.2%; viability, T/C [23]: 15.2%; viability, T/C [24]: 4.62%; viability, T/C [27]: 25.7%; viability, T/C [28]: 22.4%; viability, T/C [29]: 8.54%; viability, T/C [30]: 8.81%
CCN1CCN(Cc2ccc(Nc3ncc(F)c(-c4cc(F)c5nc(C)n(C(C)C)c5c4)n3)nc2)CC1 + C=CC(=O)N1CCN(c2nc(=O)n(-c3c(C)ccnc3C(C)C)c3nc(-c4c(O)cccc4F)c(F)cc23)C(C)C1 | < 3.16 | < 3.16 | < 3.16 | < 3.16 | < 3.16 | 16.5 | 15.9 | 15.1 | 18.5 | 17.1 | 16.8 | 14.7 | 15.9 | 19.5 | 17.1 | 17.2 | 19.6 | 18.9 | 25 | 29.8 | viability, T/C [31]: 17.4%; viability, T/C [32]: 18.3%; viability, T/C [33]: 19.1%; viability, T/C [34]: 18.1%; viability, T/C [35]: 22.2%; viability, T/C [36]: 22.2%; viability, T/C [16]: 19.8%; viability, T/C [37]: 22.7%; viability, T/C [38]: 24.2%; viability, T/C [21]: 21.9%; viability, T/C [22]: 19.2%; viability, T/C [39]: 27.8%; viability, T/C [40]: 29.9%; viability, T/C [27]: 27.9%; viability, T/C [28]: 16.3%
Cn1ncnc1[C@H]1c2n[nH]c(=O)c3cc(F)cc(c23)N[C@@H]1c1ccc(F)cc1 + C=CC(=O)N1CCN(c2nc(=O)n(-c3c(C)ccnc3C(C)C)c3nc(-c4c(O)cccc4F)c(F)cc23)C(C)C1 | < 0.316 | < 0.316 | < 0.316 | < 0.316 | < 0.316 | 13.5 | 13.9 |  |  | 14.1 | 14.1 |  |  | 15.9 | 15.2 |  | 13.6 | 14.9 | 18.1 | 16.7 | viability, T/C (second compound 0.1 µM, first compound 0.000316 µM): 14.7%; viability, T/C (second compound 0.1 µM, first compound 0.001 µM): 15.4%; viability, T/C [31]: 13.9%; viability, T/C [32]: 13.6%; viability, T/C (second compound 0.316 µM, first compound 0.000316 µM): 17.4%; viability, T/C (second compound 0.316 µM, first compound 0.001 µM): 14.9%; viability, T/C [33]: 15.3%; viability, T/C [34]: 14.8%; viability, T/C (second compound 1 µM, first compound 0.000316 µM): 16%; viability, T/C (second compound 1 µM, first compound 0.001 µM): 15.5%; viability, T/C [35]: 17.6%; viability, T/C [36]: 15.9%; viability, T/C (second compound 3.16 µM, first compound 0.000316 µM): 15.8%; viability, T/C (second compound 3.16 µM, first compound 0.001 µM): 18.3%; viability, T/C [37]: 15.4%; viability, T/C [38]: 17.4%; viability, T/C (second compound 10 µM, first compound 0.000316 µM): 17.9%; viability, T/C (second compound 10 µM, first compound 0.001 µM): 20.1%; viability, T/C [39]: 17.3%; viability, T/C [40]: 17.3%
